Molecules are shown by their SMILES.

This note sets out measurements from patent US8895585B2, “Nicotinamide derivative or salt thereof” (FUJIFILM Corporation, priority 2010, dated 2014).

This test addresses T1, glutathione S-transferase (GST)-fused full-length human Syk protein (Homo sapiens, UniProt P43405).
T1 construct: (GST)-fused full-length human Syk protein; GST (glutathione S-transferase); purchased Carna Biosciences
The test can be described thus: Syk enzyme assay. The format is biochemical. The settings on record: Syk enzyme assay, Test Example 1; read-out: IC50 of Syk-inhibitory activity. Put shortly: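 IC50 values come from a time-resolved FRET readout (615 and 665 nm) of substrate phosphorylation, measured after an EDTA stop and 1 h antibody binding. The kinase reaction ran 40 min at room temperature with 27 μM ATP and 0.4 μM biotin-peptide, following a 15 min compound preincubation with baculovirus-made GST-full-length human Syk.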
As to `CCCC[C@H](CN)Nc1nc(Nc2cnc(C)c(C)c2)c(C(N)=O)cc1F` [Example 006-341, (R)-6-((1-aminohexane-2-yl)amino)-2-((5,6-dimethylpyridin-3-yl)amino)-5-fluoronicotinamide], the IC50 fell in the range of 10 to 50 nM. To `C[C@H](N)[C@@H](CC1CC1)Nc1nc(Nc2ccc3nccnc3c2)c(C(N)=O)cc1F` [Example 006-347, 6-(((2R,3S)-3-amino-1-cyclopropylbutan-2-yl)amino)-5-fluoro-2-((quinoxalin-6-yl)amino)nicotinamide] belongs 10 to 50 nM; to `COc1cc(Nc2nc(N[C@H](CC3CC3)[C@H](C)N)c(F)cc2C(N)=O)cc(OC)n1` [Example 006-349, 6-(((2R,3S)-3-amino-1-cyclopropylbutan-2-yl)amino)-2-((2,6-dimethoxypyridin-4-yl)amino)-5-fluoronicotinamide], < 10 nM; to `CC[C@H](N)[C@@H](CC)Nc1nc(Nc2ccc3cnn(C)c3c2)c(C(N)=O)cc1F` [Example 006-366, 6-(((3R,4S)-4-aminohexan-3-yl)amino)-5-fluoro-2-((1-methyl-1H-indazol-6-yl)amino)nicotinamide], 50 to 100 nM. As for `CC[C@H](N)[C@@H](CC)Nc1nc(Nc2cccc3c2cnn3C)c(C(N)=O)cc1F` [Example 006-367, 6-(((3R,4S)-4-aminohexan-3-yl)amino)-5-fluoro-2-((1-methyl-1H-indazol-4-yl)amino)nicotinamide], the IC50 lay in the range of 10 to 50 nM. In the case of `CC[C@H](N)[C@@H](CC)Nc1nc(Nc2cncc(F)c2)c(C(N)=O)cc1F` [Example 006-382, 6-(((3R,4S)-4-aminohexan-3-yl)amino)-5-fluoro-2-((5-fluoropyridin-3-yl)amino)nicotinamide], the IC50 fell in the range of 10 to 50 nM.

As for `CC[C@H](N)[C@@H](CC)Nc1nc(Nc2cnc(OC)c(-n3nccn3)c2)c(C(N)=O)cc1F` [Example 006-391, 6-(((3R,4S)-4-aminohexan-3-yl)amino)-5-fluoro-2-((6-methoxy-5-(2H-1,2,3-triazol-2-yl)pyridin-3-yl)amino)nicotinamide], the IC50 was in the range of 10 to 50 nM. To `COc1ncc(Nc2nc(N[C@H](CC3CC3)[C@H](C)N)c(F)cc2C(N)=O)cc1-n1nccn1` [Example 006-393, 6-(((2R,3S)-3-amino-1-cyclopropylbutan-2-yl)amino)-5-fluoro-2-((6-methoxy-5-(2H-1,2,3-triazol-2-yl)pyridin-3-yl)amino)nicotinamide] belongs 10 to 50 nM. The same measure for `CCC[C@@H](Nc1nc(Nc2ccc3c(cnn3CC)c2)c(C(N)=O)cc1F)[C@@H](N)CC` [Example 006-399, 6-(((3S,4R)-3-aminoheptan-4-yl)amino)-2-((1-ethyl-1H-indazol-5-yl)amino)-5-fluoronicotinamide]: < 10 nM; for `CCC[C@@H](Nc1nc(Nc2cc(OC)nc(OC)c2)c(C(N)=O)cc1F)[C@@H](N)CC` [Example 006-413, 6-(((3S,4R)-3-aminoheptan-4-yl)amino)-2-((2,6-dimethoxypyridin-4-yl)amino)-5-fluoronicotinamide]: < 10 nM. Consider `CC(C)C[C@@H](Nc1nc(Nc2ccc3c(cnn3CCF)c2)c(C(N)=O)cc1F)[C@H](C)N` [Example 006-419, 6-(((2S,3R)-2-amino-5-methylhexan-3-yl)amino)-5-fluoro-2-((1-(2-fluoroethyl)-1H-indazol-5-yl)amino)nicotinamide], for which the IC50 was < 10 nM. The same measure for `CCCC[C@H](CN)Nc1nc(Nc2ccc3c(cnn3CC(F)F)c2)c(C(N)=O)cc1F` [Example 006-421, (R)-6-((1-aminohexan-2-yl)amino)-2-((1-(2,2-difluoroethyl)-1H-indazol-5-yl)amino)-5-fluoronicotinamide]: 50 to 100 nM; for `CC(C)C[C@H](CN)Nc1nc(Nc2ccc3c(cnn3CC(F)F)c2)c(C(N)=O)cc1F` [Example 006-422, (R)-6-((1-amino-4-methylpentan-2-yl)amino)-2-((1-(2,2-difluoroethyl)-1H-indazol-5-yl)amino)-5-fluoronicotinamide]: < 10 nM. Take `CC[C@@H](Nc1nc(Nc2ccc3c(cnn3CC(F)F)c2)c(C(N)=O)cc1F)[C@H](C)N` [Example 006-423, 6-(((2S,3R)-2-aminopentan-3-yl)amino)-2-((1-(2,2-difluoroethyl)-1H-indazol-5-yl)amino)-5-fluoronicotinamide]: the IC50 lay within 10 to 50 nM. The same measure for `CCC[C@@H](Nc1nc(Nc2ccc3c(cnn3CC(F)F)c2)c(C(N)=O)cc1F)[C@H](C)N` [Example 006-424, 6-(((2S,3R)-2-aminohexan-3-yl)amino)-2-((1-(2,2-difluoroethyl)-1H-indazol-5-yl)amino)-5-fluoronicotinamide]: 10 to 50 nM; for `CCCC[C@@H](Nc1nc(Nc2ccc3c(cnn3CC(F)F)c2)c(C(N)=O)cc1F)[C@H](C)N` [Example 006-425, 6-(((2S,3R)-2-aminoheptan-3-yl)amino)-2-((1-(2,2-difluoroethyl)-1H-indazol-5-yl)amino)-5-fluoronicotinamide]: 10 to 50 nM; for `C[C@H](N)[C@@H](CC1CC1)Nc1nc(Nc2ccc3c(cnn3CC(F)F)c2)c(C(N)=O)cc1F` [Example 006-426, 6-(((2R,3S)-3-amino-1-cyclopropylbutan-2-yl)amino)-2-((1-(2,2-difluoroethyl)-1H-indazol-5-yl)amino)-5-fluoronicotinamide]: 100 to 1000 nM.

As for `CCn1ncc2ccc(Nc3nc(N[C@H](CC4CC4)[C@H](C)N)c(F)cc3C(N)=O)cc21` [Example 006-436], the IC50 lay in the range of 10 to 50 nM. The same measure for `C[C@H](N)[C@@H](CC1CC1)Nc1nc(Nc2ccc3cnn(CCF)c3c2)c(C(N)=O)cc1F` [Example 006-437, 6-(((2R,3S)-3-amino-1-cyclopropylbutan-2-yl)amino)-5-fluoro-2-((1-(2-fluoroethyl)-1H-indazol-6-yl)amino)nicotinamide]: 10 to 50 nM. To `C[C@H](N)[C@@H](CC1CC1)Nc1nc(Nc2ccc3cnn(CC(F)F)c3c2)c(C(N)=O)cc1F` [Example 006-438, 6-(((2R,3S)-3-amino-1-cyclopropylbutan-2-yl)amino)-2-((1-(2,2-difluoroethyl)-1H-indazol-6-yl)amino)-5-fluoronicotinamide] belongs 10 to 50 nM. The same measure for `C[C@H](N)[C@@H](CC1CC1)Nc1nc(Nc2ccc3c(c2)c(F)nn3C)c(C(N)=O)cc1F` [Example 006-439, 6-(((2R,3S)-3-amino-1-cyclopropylbutan-2-yl)amino)-5-fluoro-2-((3-fluoro-1-methyl-1H-indazol-5-yl)amino)nicotinamide]: 10 to 50 nM.

In the case of `C[C@H](N)[C@@H](CC1CC1)Nc1nc(Nc2ccc3c(F)nn(C)c3c2)c(C(N)=O)cc1F` [Example 006-440, 6-(((2R,3S)-3-amino-1-cyclopropylbutan-2-yl)amino)-5-fluoro-2-((3-fluoro-1-methyl-1H-indazol-6-yl)amino)nicotinamide], the IC50 was in the range of 10 to 50 nM.

As for `CCn1nc(F)c2ccc(Nc3nc(N[C@H](CC4CC4)[C@H](C)N)c(F)cc3C(N)=O)cc21` [Example 006-441, 6-(((2R,3S)-3-amino-1-cyclopropylbutan-2-yl)amino)-2-((1-ethyl-3-fluoro-1H-indazol-6-yl)amino)-5-fluoronicotinamide], the IC50 lay in the range of 10 to 50 nM. The same measure for `NC(=O)c1cc(F)c(N[C@@H]2CCCC[C@@H]2N)nc1Nc1cnc(-n2cccn2)c(-n2cccn2)c1` [Example 006-448, 6-(((1R,2S)-2-aminocyclohexyl)amino)-2-((5,6-di(1H-pyrazol-1-yl)pyridin-3-yl)amino)-5-fluoronicotinamide]: 50 to 100 nM; for `NC(=O)c1cc(F)c(N[C@@H]2CCCC[C@@H]2N)nc1Nc1cnc(-n2cccn2)c(-n2ccnn2)c1` [Example 006-450, 2-((6-(1H-pyrazol-1-yl)-5-(1H-1,2,3-triazol-1-yl)pyridin-3-yl)amino)-6-(((1R,2S)-2-aminocyclohexyl)amino)-5-fluoronicotinamide]: 100 to 1000 nM. To `CCn1nc(C(C)C)c2cc(Nc3nc(N[C@@H]4CCCC[C@@H]4N)c(F)cc3C(N)=O)ccc21` [Example 006-462, 6-(((1R,2S)-2-aminocyclohexyl)amino)-2-((1-ethyl-3-isopropyl-1H-indazol-5-yl)amino)-5-fluoronicotinamide] belongs < 10 nM. To `COCCn1nc(C(C)C)c2cc(Nc3nc(N[C@@H]4CCCC[C@@H]4N)c(F)cc3C(N)=O)ccc21` [Example 006-463, 6-(((1R,2S)-2-aminocyclohexyl)amino)-5-fluoro-2-((3-isopropyl-1-(2-methoxyethyl)-1H-indazol-5-yl)amino)nicotinamide] belongs < 10 nM; to `NC(=O)c1cc(F)c(N[C@@H]2CCCC[C@@H]2N)nc1Nc1ccc(N2CC3(COC3)C2)nc1` [Example 006-467, 2-((6-(2-oxa-6-azaspiro[3.3]heptane-6-yl)pyridin-3-yl)amino)-6-(((1R,2S)-2-aminocyclohexyl)amino)-5-fluoronicotinamide], 10 to 50 nM; to `NC(=O)c1cc(F)c(N[C@@H]2CCCC[C@@H]2N)nc1Nc1ccc2c(F)nn(C3CC3)c2c1` [Example 006-476, 6-(((1R,2S)-2-aminocyclohexyl)amino)-2-((1-cyclopropyl-3-fluoro-1H-indazol-6-yl)amino)-5-fluoronicotinamide], < 10 nM.

Consider `CCCc1nn(C2CC2)c2ccc(Nc3nc(N[C@@H]4CCCC[C@@H]4N)c(F)cc3C(N)=O)cc12` [Example 006-479, 6-(((1R,2S)-2-aminocyclohexyl)amino)-2-((1-cyclopropyl-3-propyl-1H-indazol-5-yl)amino)-5-fluoronicotinamide], for which the IC50 is < 10 nM. The same measure for `C[C@H](N)[C@@H](CC1CC1)Nc1nc(Nc2ccc3c(F)nn(C4CC4)c3c2)c(C(N)=O)cc1F` [Example 006-481, 6-(((2R,3S)-3-amino-1-cyclopropylbutan-2-yl)amino)-2-((1-cyclopropyl-3-fluoro-1H-indazol-6-yl)amino)-5-fluoronicotinamide]: 100 to 1000 nM.
